Experimental data: ChEMBL document CHEMBL1201862, “PubChem BioAssay data set” (2004)
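Cultured in 96-well plates, cells were exposed to test compound for 48 hours across five concentrations. Here, GI50 denotes the concentration required for 50% inhibition of growth.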 Active and inactive are the calls of the source. Rule as the data show it: active = GI50 up to about 1.1 µM and inactive = higher.

What was measured:
Experiment in all cases: NCI anticancer screen, dose series, 48 h
SF-295 = test system: SF-295
SNB-75 = test system: SNB-75
HT-29 = test system: HT-29
MCF7 = test system: MCF7
RPMI-8226 = test system: RPMI-8226
EKVX = test system: EKVX
Hs-578T = test system: Hs-578T
M14 = test system: M14
LOX IMVI = test system: LOX IMVI
MOLT-4 = test system: MOLT-4
SNB-19 = test system: SNB-19
T47D = test system: T47D
NCI-H226 = test system: NCI-H226
MDA-MB-435 = test system: MDA-MB-435
COLO 205 = test system: COLO 205
NCI-H460 = test system: NCI-H460
HOP-92 = test system: HOP-92
Malme-3M = test system: Malme-3M
SK-MEL-28 = test system: SK-MEL-28
NCI/ADR-RES = test system: NCI/ADR-RES

Compound	GI50 (SF-295)	GI50 (SNB-75)	GI50 (HT-29)	GI50 (MCF7)	GI50 (RPMI-8226)	GI50 (EKVX)	GI50 (Hs-578T)	GI50 (M14)	GI50 (LOX IMVI)	GI50 (MOLT-4)	GI50 (SNB-19)	GI50 (T47D)	GI50 (NCI-H226)	GI50 (MDA-MB-435)	GI50 (COLO 205)	GI50 (NCI-H460)	GI50 (HOP-92)	GI50 (Malme-3M)	GI50 (SK-MEL-28)	GI50 (NCI/ADR-RES)
COC(=O)/C=C/c1ccc(OP(=O)(O)O)c(OC)c1	> 100 µM (inactive)	> 100 µM (inactive)	> 100 µM (inactive)	> 100 µM (inactive)	> 100 µM (inactive)	> 100 µM (inactive)	> 100 µM (inactive)	> 100 µM (inactive)	> 100 µM (inactive)	> 100 µM (inactive)	> 100 µM (inactive)	> 100 µM (inactive)	> 100 µM (inactive)	> 100 µM (inactive)	> 100 µM (inactive)	> 100 µM (inactive)	> 100 µM (inactive)	> 100 µM (inactive)	> 100 µM (inactive)	–
O=C1NCC2(CCN(CCCC3(c4ccc(F)cc4)OCCO3)CC2)N1c1ccccc1	> 100 µM (inactive)	66.5 µM (inactive)	84.5 µM (inactive)	–	> 100 µM (inactive)	> 100 µM (inactive)	> 100 µM (inactive)	> 100 µM (inactive)	> 100 µM (inactive)	> 100 µM (inactive)	> 100 µM (inactive)	> 100 µM (inactive)	> 100 µM (inactive)	> 100 µM (inactive)	> 100 µM (inactive)	> 100 µM (inactive)	36.7 µM (inactive)	> 100 µM (inactive)	> 100 µM (inactive)	> 100 µM (inactive)
Cc1cc2c(O)c(c1)CN(Cc1ccccc1)Cc1cc(C)cc(c1O)CN(Cc1ccccc1)Cc1cc(C)cc(c1O)CN(Cc1ccccc1)C2	> 100 µM (inactive)	50.8 µM (inactive)	> 100 µM (inactive)	> 100 µM (inactive)	> 100 µM (inactive)	–	> 100 µM (inactive)	> 100 µM (inactive)	> 100 µM (inactive)	> 100 µM (inactive)	> 100 µM (inactive)	> 100 µM (inactive)	> 100 µM (inactive)	> 100 µM (inactive)	> 100 µM (inactive)	> 100 µM (inactive)	–	> 100 µM (inactive)	> 100 µM (inactive)	> 100 µM (inactive)
CC(C)(Cc1ccccc1)N1C(=O)N1C(C)(C)Cc1ccccc1	–	32.5 µM (inactive)	15.5 µM (inactive)	31.5 µM (inactive)	16.5 µM (inactive)	92.7 µM (inactive)	> 100 µM (inactive)	34.8 µM (inactive)	17.7 µM (inactive)	18.7 µM (inactive)	> 100 µM (inactive)	65.9 µM (inactive)	16.4 µM (inactive)	39.1 µM (inactive)	25.6 µM (inactive)	> 100 µM (inactive)	–	23.4 µM (inactive)	> 100 µM (inactive)	> 100 µM (inactive)
CN(C)CCCNC(=O)N/N=C/c1ccc(O)cc1	> 100 µM (inactive)	59.2 µM (inactive)	> 100 µM (inactive)	> 100 µM (inactive)	–	–	> 100 µM (inactive)	> 100 µM (inactive)	–	> 100 µM (inactive)	> 100 µM (inactive)	> 100 µM (inactive)	> 100 µM (inactive)	> 100 µM (inactive)	> 100 µM (inactive)	> 100 µM (inactive)	–	> 100 µM (inactive)	> 100 µM (inactive)	> 100 µM (inactive)
CC(C)[Si](OC1=CCC[C@H]2NC(=O)[C@@H](Cc3ccccc3)[C@@]12C)(C(C)C)C(C)C	4.85 µM (inactive)	15.4 µM (inactive)	3.43 µM (inactive)	3.55 µM (inactive)	–	3.74 µM (inactive)	4.67 µM (inactive)	11.2 µM (inactive)	3.03 µM (inactive)	3.89 µM (inactive)	10 µM (inactive)	2.79 µM (inactive)	–	4.04 µM (inactive)	2.33 µM (inactive)	3.52 µM (inactive)	2.32 µM (inactive)	12.8 µM (inactive)	4.11 µM (inactive)	6.49 µM (inactive)
CCN(CC)c1nc(NC2CCCCC2)c2nc(N(CC)CC)nc(NC3CCCCC3)c2n1	> 100 µM (inactive)	–	> 100 µM (inactive)	> 100 µM (inactive)	–	> 100 µM (inactive)	> 100 µM (inactive)	> 100 µM (inactive)	–	> 100 µM (inactive)	> 100 µM (inactive)	> 100 µM (inactive)	> 100 µM (inactive)	> 100 µM (inactive)	–	> 100 µM (inactive)	38.7 µM (inactive)	> 100 µM (inactive)	> 100 µM (inactive)	> 100 µM (inactive)
Cc1c[nH]c(C(=O)O)c1-c1ccc2c(-c3ccccc3)nc3ccccc3n12	22.7 µM (inactive)	17.5 µM (inactive)	22.8 µM (inactive)	34 µM (inactive)	–	20.5 µM (inactive)	18.6 µM (inactive)	31.7 µM (inactive)	27.1 µM (inactive)	34.2 µM (inactive)	–	37.2 µM (inactive)	20.3 µM (inactive)	23.2 µM (inactive)	39.4 µM (inactive)	22.9 µM (inactive)	32.9 µM (inactive)	–	31.4 µM (inactive)	17.2 µM (inactive)
COc1ccc(CC(O)CN2CCOCC2)cc1 (configuration not stated)	> 100 µM (inactive)	–	> 100 µM (inactive)	–	–	> 100 µM (inactive)	> 100 µM (inactive)	> 100 µM (inactive)	> 100 µM (inactive)	> 100 µM (inactive)	> 100 µM (inactive)	> 100 µM (inactive)	> 100 µM (inactive)	> 100 µM (inactive)	–	> 100 µM (inactive)	> 100 µM (inactive)	> 100 µM (inactive)	> 100 µM (inactive)	> 100 µM (inactive)
C=CCNC(NCC=C)=C(C(Cl)=C(Cl)Cl)[N+](=O)[O-]	> 100 µM (inactive)	89.1 µM (inactive)	54.6 µM (inactive)	35.9 µM (inactive)	49.1 µM (inactive)	67.3 µM (inactive)	25.4 µM (inactive)	31.9 µM (inactive)	–	31.5 µM (inactive)	> 100 µM (inactive)	30.5 µM (inactive)	> 100 µM (inactive)	32 µM (inactive)	19.7 µM (inactive)	> 100 µM (inactive)	–	16.4 µM (inactive)	79.3 µM (inactive)	43.2 µM (inactive)
O=c1c(C(c2ccc([N+](=O)[O-])cc2)c2c(O)oc3ccccc3c2=O)c(O)oc2ccccc12	–	86.5 µM (inactive)	> 100 µM (inactive)	–	1 µM (active)	> 100 µM (inactive)	> 100 µM (inactive)	–	> 100 µM (inactive)	> 100 µM (inactive)	> 100 µM (inactive)	> 100 µM (inactive)	> 100 µM (inactive)	> 100 µM (inactive)	> 100 µM (inactive)	> 100 µM (inactive)	> 100 µM (inactive)	> 100 µM (inactive)	> 100 µM (inactive)	> 100 µM (inactive)
